Patent publication US20250367132A1, “SOLID LIPID NANOPARTICLES FOR ENCAPSULATION AND DELIVERY OF BIOACTIVE COMPOUNDS AND METHODS OF MAKING THE SAME” (Yubeck, Inc., priority 2024, published 2025)

Columns and labels:
[1] = Dynamic light scattering (DLS): mean particle size and polydispersity index; assay type: physicochemical
Experimental: SLNs are characterized by particle size distribution, polydispersity index (PDI), surface charge (zeta potential), encapsulation efficiency (EE %), and loading capacity (LC %), all of which influence their stability, bioavailability, and controlled release properties. Particle size distribution is measured using dynamic light scattering (DLS), nanoparticle tracking analysis (NTA), or any equivalent method, ensuring SLN sizes range from 10 nm approximately 1000 nm. PDI, measured by DLS or NTA indicates uniformity of particle size distribution. Zeta potential, measured using […], electrophoretic light scattering (ELS), or an equivalent method, must have an absolute value of ≥25 mV, ensuring sufficient electrostatic repulsion to maintain colloidal stability. Encapsulation efficiency (EE %) and loading capacity (LC %) are measured using UV-Vis Spectroscopy, high performance liquid chromatography, or liquid chromatography mass spectrometry (LC-MS), amino acid analysis (AAA), or any equivalent method, with target values defined for each bioactive compound.
An example of the manufacturing process of whole Spirulina SLNs is disclosed below. In accordance with an aspect of the present invention, palmitic acid is dissolved in 100% ethanol (1.5 mg/mL) and heated to 70° C. Natural and sustainable ingredients that can be used as alternatives to palmitic acid, include stearic acid, behenic acid, lauric acid, cetyl alcohol, cocoa butter, shea butter, carnauba wax, candelilla wax, beeswax, and glycerol monostearate (GMS). Other natural lipids, such as oleic acid, linoleic acid, alpha-linolenic acid, gamma-linolenic acid, triglycerides such as medium-chain triglycerides (MCTs) or long-chain triglycerides (LCTs), and natural oils such as coconut oil, olive oil, and sunflower oil. Additional naturally derived lipid components such as 1-monolaurin, phosphatidylcholine, and phosphatidylethanolamine may also be used. […] The Spirulina SLNs are quantified using […] to measure the mean particle, PDI, and zeta potential. […]

[2] = cited from earlier work

Compound | PDI ([1]; non-encapsulated, in solution) [%] | PDI ([1]; unencapsulated, before SLN fabrication) | mean particle size (initial diameter) ([1]; unencapsulated, in ethanol, before SLN fabrication) [nm] | Acceptable Daily Intake (ADI) ([2]; FDA, color additive petitions) | No Observed Effect Level (NOEL) ([2]; GRAS submission)
C=C1CC[C@H](O)C/C1=C/C=C1\CCC[C@]2(C)[C@@H]([C@H](C)CCCC(C)C)CC[C@@H]12 [vitamin D3, cholecalciferol] | 0.10±0.01 | 10.17±2.26 | 124.6±0.1 |  | 
phycocyanin |  |  |  | 1.0-1.8 g/p/d | 108-184.5 g/p/d
